Key:
[1] = biological target: T1, Peroxisome proliferator-activated receptor alpha (Rattus norvegicus, UniProt P37230); assay: Agonist activity at rat PPARalpha in rat H4IIE cells assessed as gene induction; type: functional, cell-based
T1 sequence (P37230 whole entry): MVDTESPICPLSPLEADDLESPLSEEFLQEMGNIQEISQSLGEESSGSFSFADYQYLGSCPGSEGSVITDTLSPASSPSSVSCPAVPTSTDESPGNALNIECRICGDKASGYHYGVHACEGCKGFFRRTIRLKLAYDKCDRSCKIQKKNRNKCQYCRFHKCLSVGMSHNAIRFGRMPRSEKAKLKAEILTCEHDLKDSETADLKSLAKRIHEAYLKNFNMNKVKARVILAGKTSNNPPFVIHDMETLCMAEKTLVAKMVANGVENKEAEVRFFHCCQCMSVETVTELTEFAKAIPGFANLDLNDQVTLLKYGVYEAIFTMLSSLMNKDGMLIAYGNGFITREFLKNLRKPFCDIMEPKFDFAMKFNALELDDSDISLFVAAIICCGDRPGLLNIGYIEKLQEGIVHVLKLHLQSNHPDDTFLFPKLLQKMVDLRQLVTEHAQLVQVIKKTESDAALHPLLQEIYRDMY

[2] = Metabolic stability in human liver microsomes at 5 uM; type: ADME, Microsome
[3] = Cmax in Sprague-Dawley rat at 3 mg/kg, iv or 30 mg/kg, po; type: ADME, organism-based; settings: in vivo
[4] = AUC in Sprague-Dawley rat at 3 mg/kg, iv or 30 mg/kg, po; type: ADME, organism-based; settings: plasma
[5] = Half life at terminal phase in Sprague-Dawley rat at 30 mg/kg, po; type: ADME, organism-based; parameters: dose 30 mg/kg, route oral; settings: in vivo, read-out: beta t1/2 (converted)
[6] = Total clearance in Sprague-Dawley rat at 3 mg/kg, iv or 30 mg/kg, po; type: ADME, organism-based; settings: in vivo
[7] = Oral bioavailability in Sprague-Dawley rat at 30 mg/kg; type: ADME, organism-based; settings: in vivo
[8] = biological target: T2, Peroxisome proliferator-activated receptor delta (Homo sapiens, UniProt Q03181); assay: Agonist activity at PPARdelta expressed in HEK293 cells by GAL4 transactivation assay; type: functional, cell-based
T2 sequence (Q03181 whole entry): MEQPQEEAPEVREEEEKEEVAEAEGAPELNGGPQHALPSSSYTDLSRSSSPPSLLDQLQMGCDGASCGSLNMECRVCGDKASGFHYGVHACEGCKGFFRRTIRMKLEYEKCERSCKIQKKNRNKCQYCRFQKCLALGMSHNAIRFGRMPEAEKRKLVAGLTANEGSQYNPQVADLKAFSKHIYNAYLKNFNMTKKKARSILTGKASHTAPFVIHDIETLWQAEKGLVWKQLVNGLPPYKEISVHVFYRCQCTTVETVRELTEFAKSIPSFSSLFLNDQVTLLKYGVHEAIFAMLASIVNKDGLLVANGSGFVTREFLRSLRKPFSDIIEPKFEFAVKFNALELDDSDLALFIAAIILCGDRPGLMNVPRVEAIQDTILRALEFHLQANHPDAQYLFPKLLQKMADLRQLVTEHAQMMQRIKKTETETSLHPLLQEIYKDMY

[9] = biological target: T3, Peroxisome proliferator-activated receptor gamma (Homo sapiens) (UniProt P37231); assay: Agonist activity at PPARgamma expressed in HEK293 cells assessed as aP2 gene induction relative to BRL-49653; type: functional, cell-based
T3 sequence (whole entry): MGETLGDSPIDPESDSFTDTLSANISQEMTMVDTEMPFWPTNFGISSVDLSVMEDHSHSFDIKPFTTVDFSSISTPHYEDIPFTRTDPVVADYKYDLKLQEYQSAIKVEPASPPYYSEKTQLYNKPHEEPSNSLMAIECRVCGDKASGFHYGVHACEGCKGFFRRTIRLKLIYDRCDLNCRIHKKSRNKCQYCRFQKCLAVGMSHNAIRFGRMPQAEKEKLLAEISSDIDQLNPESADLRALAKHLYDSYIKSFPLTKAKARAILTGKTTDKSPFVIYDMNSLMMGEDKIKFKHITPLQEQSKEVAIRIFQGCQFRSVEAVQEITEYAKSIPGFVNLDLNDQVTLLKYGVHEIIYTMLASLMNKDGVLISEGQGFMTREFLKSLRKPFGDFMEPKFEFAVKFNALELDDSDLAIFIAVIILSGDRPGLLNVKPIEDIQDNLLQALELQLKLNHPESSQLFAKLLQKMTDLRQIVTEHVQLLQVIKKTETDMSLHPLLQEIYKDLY

Row | SMILES | EC50 [1] [nM] | other results
1 | CCCCCCCN(C(=O)Nc1ccc(N(C)C)cc1)C1Cc2ccc(SC(C)(C)C(=O)O)cc2C1 (stereo not given) | 252 | –
2 | CCCCCCCN(C(=O)Nc1ccccc1C)C1Cc2ccc(SC(C)(C)C(=O)O)cc2C1 (stereo not given) | 7540 | –
3 | CCN(C(=O)Nc1ccc(OC(F)(F)F)cc1C)C1Cc2ccc(SC(C)(C)C(=O)O)cc2C1 (stereo not given) | 598 | –
4 | CCN(C(=O)Nc1ccc(N(C)C)cc1)C1Cc2ccc(SC(C)(C)C(=O)O)cc2C1 (stereo not given) | 117 | half-life at 5 µM [2]: 1.33 h; Cmax [3]: 72300 ng/mL; AUC [4]: 273000 ng·h/mL; half-life [5]: 4.46 h; clearance [6]: 0.11 mL/min/kg; bioavailability [7]: 58%
5 | CCCCCCN(C(=O)Nc1ccc(N(C)C)cc1)C1Cc2ccc(SC(C)(C)C(=O)O)cc2C1 (stereo not given) | 219 | –
6 | CN(C(=O)Nc1ccc(OC(F)(F)F)cc1)C1Cc2ccc(SC(C)(C)C(=O)O)cc2C1 (stereo not given) | 2850 | –
7 | CCCCCCCN(C(=O)Nc1cccc(OC)c1)C1Cc2ccc(SC(C)(C)C(=O)O)cc2C1 (stereo not given) | 1110 | –
8 | CCCCCCCN(C(=O)Nc1ccc(C(C)C)cc1)C1Cc2ccc(SC(C)(C)C(=O)O)cc2C1 (stereo not given) | 229 | –
9 | COCCN(C(=O)Nc1ccc(OC(F)(F)F)cc1)C1Cc2ccc(SC(C)(C)C(=O)O)cc2C1 (stereo not given) | 425 | –
10 | CC(C)CN(C(=O)Nc1ccc(OC(F)(F)F)cc1)C1Cc2ccc(SC(C)(C)C(=O)O)cc2C1 (stereo not given) | 2340 | –
11 | CCN(C(=O)Nc1ccc(OC(F)(F)F)c(Cl)c1)C1Cc2ccc(SC(C)(C)C(=O)O)cc2C1 (stereo not given) | > 3000 | –
12 | CC(C)(Sc1ccc2c(c1)C[C@H](NC(=O)Nc1ccc(OC(F)(F)F)cc1)C2)C(=O)O | 146 | –
13 | CC(C)(Sc1ccc2c(c1)C[C@@H](NC(=O)Nc1ccc(OC(F)(F)F)cc1)C2)C(=O)O | 1110 | –
14 | CCCCCN(C(=O)NC1Cc2ccc(SC(C)(C)C(=O)O)cc2C1)c1ccc(OC(F)(F)F)cc1 (stereo not given) | > 5000 | –
15 | CCN(C(=O)Nc1ccc(OC(F)(F)F)c(Br)c1)C1Cc2ccc(SC(C)(C)C(=O)O)cc2C1 (stereo not given) | > 3000 | –
16 | CCCCCCCN(C(=O)Nc1ccccc1OC(F)(F)F)C1Cc2ccc(SC(C)(C)C(=O)O)cc2C1 (stereo not given) | 4990 | –
17 | CCCCCCCN(C(=O)Nc1ccc(F)cc1F)C1Cc2ccc(SC(C)(C)C(=O)O)cc2C1 (stereo not given) | > 10000 | –
18 | CC(C)(Sc1ccc2c(c1)CC(N(CCCC(F)(F)F)C(=O)Nc1ccc(OC(F)(F)F)cc1)C2)C(=O)O (stereo not given) | 707 | –

Row | SMILES | EC50 [1] [nM] | other results
19 | CC(C)(Sc1ccc2c(c1)CC(NC(=O)Nc1ccc(OC(F)(F)F)cc1)C2)C(=O)O (stereo not given) | 96 | –
20 | CCCCCCCN(C(=O)Nc1ccc(OC)cc1)C1Cc2ccc(SC(C)(C)C(=O)O)cc2C1 (stereo not given) | 910 | –
21 | CCCCCCCN(C(=O)Nc1ccccc1)C1Cc2ccc(SC(C)(C)C(=O)O)cc2C1 (stereo not given) | > 10000 | –
22 | CC(C)(Oc1ccc(C2CC2(Cl)Cl)cc1)C(=O)O (stereo not given) [CIPROFIBRATE] | > 10000 | –
23 | CCCCCCCN(C(=O)Nc1ccccc1C(F)(F)F)C1Cc2ccc(SC(C)(C)C(=O)O)cc2C1 (stereo not given) | 6390 | –
24 | CCCCCCCN(C(=O)Nc1cccc(F)c1)C1Cc2ccc(SC(C)(C)C(=O)O)cc2C1 (stereo not given) | 2670 | –
25 | CCN(C(=O)N(C)c1ccc(OC(F)(F)F)cc1)C1Cc2ccc(SC(C)(C)C(=O)O)cc2C1 (stereo not given) | > 1000 | –
26 | CCN(C(=O)Nc1ccc(C(C)C)cc1)C1Cc2ccc(SC(C)(C)C(=O)O)cc2C1 (stereo not given) | 32 | half-life at 5 µM [2]: 0.2 h; Cmax [3]: 32400 ng/mL; AUC [4]: 37100 ng·h/mL; half-life [5]: 2.92 h; clearance [6]: 0.81 mL/min/kg; bioavailability [7]: 34%
27 | CCCCCCCN(C(=O)Nc1cccc(C(F)(F)F)c1)C1Cc2ccc(SC(C)(C)C(=O)O)cc2C1 (stereo not given) | 2730 | –
28 | CCCCN(C(=O)Nc1ccc(C(C)C)cc1)C1Cc2ccc(SC(C)(C)C(=O)O)cc2C1 (stereo not given) | 260 | –
29 | CCCCCCCN(C(=O)Nc1ccccc1F)C1Cc2ccc(SC(C)(C)C(=O)O)cc2C1 (stereo not given) | > 10000 | –
30 | CC(C)N(C(=O)Nc1ccc(OC(F)(F)F)cc1)C1Cc2ccc(SC(C)(C)C(=O)O)cc2C1 (stereo not given) | > 5000 | –
31 | CCN(C(=O)Nc1ccc(OC(F)(F)F)cc1)[C@H]1Cc2ccc(SC(C)(C)C(=O)O)cc2C1 | 165 | –
32 | CCCCCCN(C(=O)Nc1ccc(C(C)C)cc1)C1Cc2ccc(SC(C)(C)C(=O)O)cc2C1 (stereo not given) | 180 | –
33 | CCCCCCCN(CCc1ccc(SC(C)(C)C(=O)O)cc1)C(=O)Nc1ccc(F)cc1F [GSK-9578] | 166 | EC50 [8]: 150 nM; Activity [9]: 0.46%
34 | CC(C)CCN(C(=O)Nc1ccc(OC(F)(F)F)cc1)C1Cc2ccc(SC(C)(C)C(=O)O)cc2C1 (stereo not given) | 386 | –
35 | CCCCN(C(=O)Nc1ccc(N(C)C)cc1)C1Cc2ccc(SC(C)(C)C(=O)O)cc2C1 (stereo not given) | 561 | –
36 | CCN(C(=O)Nc1ccc(OC(F)(F)F)cc1Br)C1Cc2ccc(SC(C)(C)C(=O)O)cc2C1 (stereo not given) | > 1000 | –

The next lines start with results.

Row | EC50 [1] [nM] | SMILES | other results
37 | 159 | CCCCCN(C(=O)Nc1ccc(C(C)C)cc1)C1Cc2ccc(SC(C)(C)C(=O)O)cc2C1 (stereo not given) | –
38 | 23 | CCN(C(=O)Nc1ccc(SC(F)(F)F)cc1)C1Cc2ccc(SC(C)(C)C(=O)O)cc2C1 (stereo not given) | half-life at 5 µM [2]: 1.67 h; Cmax [3]: 5670 ng/mL; AUC [4]: 101000 ng·h/mL; half-life [5]: 3.84 h; clearance [6]: 0.3 mL/min/kg; bioavailability [7]: 100%
39 | 46 | CCCCCN(C(=O)Nc1ccc(SC(F)(F)F)cc1)C1Cc2ccc(SC(C)(C)C(=O)O)cc2C1 (stereo not given) | half-life at 5 µM [2]: 1.27 h; Cmax [3]: 8020 ng/mL; AUC [4]: 54700 ng·h/mL; half-life [5]: 4.05 h; clearance [6]: 0.55 mL/min/kg; bioavailability [7]: 59%
40 | 249 | CCCCCCN(C(=O)Nc1ccc(SC(F)(F)F)cc1)C1Cc2ccc(SC(C)(C)C(=O)O)cc2C1 (stereo not given) | –
41 | 419 | CCCCCCCN(C(=O)Nc1ccc(SC)cc1)C1Cc2ccc(SC(C)(C)C(=O)O)cc2C1 (stereo not given) | –
42 | 1960 | CCCCCCCN(C(=O)Nc1ccccc1SC(F)(F)F)C1Cc2ccc(SC(C)(C)C(=O)O)cc2C1 (stereo not given) | –
43 | 294 | CCCCCCCN(C(=O)Nc1ccc(OC(F)(F)F)cc1)C1Cc2ccc(SC(C)(C)C(=O)O)cc2C1 (stereo not given) | –
44 | 1030 | CCCCCCCCN(C(=O)Nc1ccc(OC(F)(F)F)cc1)C1Cc2ccc(SC(C)(C)C(=O)O)cc2C1 (stereo not given) | –
45 | 105 | CCCCCN(C(=O)Nc1ccc(OC(F)(F)F)cc1)C1Cc2ccc(SC(C)(C)C(=O)O)cc2C1 (stereo not given) | half-life at 5 µM [2]: 1.67 h; Cmax [3]: 16600 ng/mL; AUC [4]: 121000 ng·h/mL; half-life [5]: 7.19 h; clearance [6]: 0.25 mL/min/kg; bioavailability [7]: 24%
46 | 166 | CCCCCCN(C(=O)Nc1ccc(OC(F)(F)F)cc1)C1Cc2ccc(SC(C)(C)C(=O)O)cc2C1 (stereo not given) | –
47 | 210 | CCCCCCCN(C(=O)Nc1ccc(SC(F)(F)F)cc1)C1Cc2ccc(SC(C)(C)C(=O)O)cc2C1 (stereo not given) | –
48 | 195 | CCCCN(C(=O)Nc1ccc(OC(F)(F)F)cc1)C1Cc2ccc(SC(C)(C)C(=O)O)cc2C1 (stereo not given) | –
49 | 1270 | CCCCCCCN(C(=O)Nc1ccc(C(F)(F)F)cc1)C1Cc2ccc(SC(C)(C)C(=O)O)cc2C1 (stereo not given) | –
50 | 169 | CCCCCCCN(C(=O)Nc1ccc(OC(F)(F)F)cc1)[C@@H]1Cc2ccc(SC(C)(C)C(=O)O)cc2C1 | –
51 | 141 | CCCCCN(C(=O)Nc1ccc(N(C)C)cc1)C1Cc2ccc(SC(C)(C)C(=O)O)cc2C1 (stereo not given) | half-life at 5 µM [2]: 1.57 h; Cmax [3]: 20800 ng/mL; AUC [4]: 63600 ng·h/mL; half-life [5]: 2.6 h; clearance [6]: 0.47 mL/min/kg; bioavailability [7]: 62%
52 | > 13000 | CCCCCCCN(C(=O)Nc1ccc(OC(F)(F)F)cc1)[C@H]1Cc2ccc(SC(C)(C)C(=O)O)cc2C1 | –

Reference: ChEMBL document CHEMBL1141364, “Design and synthesis of indane-ureido-thioisobutyric acids: A novel class of PPARalpha agonists” (Bioorg Med Chem Lett, 2007)
